The source of these data is US7175991B2, “Method of measuring binding site on plasma protein of plasma protein-binding drug and method of measuring plasma protein mutation” (Nihon Medi-Physics Co., Ltd., priority 2002, dated 2007).

In series [1] the target is HSA Site II (Homo sapiens, UniProt P02768). To be noted: for Change ratio (time) of ^14C-DZP free drug ratio / Free drug ratio (%) of ^14C-DZP: human, 400 μM, pH 7.4.
Series [2] deals with T1, HSA Site I (Homo sapiens, UniProt P02768). As to conditions: 400 μM, pH 7.4.
T1 sequence (P02768 25-609): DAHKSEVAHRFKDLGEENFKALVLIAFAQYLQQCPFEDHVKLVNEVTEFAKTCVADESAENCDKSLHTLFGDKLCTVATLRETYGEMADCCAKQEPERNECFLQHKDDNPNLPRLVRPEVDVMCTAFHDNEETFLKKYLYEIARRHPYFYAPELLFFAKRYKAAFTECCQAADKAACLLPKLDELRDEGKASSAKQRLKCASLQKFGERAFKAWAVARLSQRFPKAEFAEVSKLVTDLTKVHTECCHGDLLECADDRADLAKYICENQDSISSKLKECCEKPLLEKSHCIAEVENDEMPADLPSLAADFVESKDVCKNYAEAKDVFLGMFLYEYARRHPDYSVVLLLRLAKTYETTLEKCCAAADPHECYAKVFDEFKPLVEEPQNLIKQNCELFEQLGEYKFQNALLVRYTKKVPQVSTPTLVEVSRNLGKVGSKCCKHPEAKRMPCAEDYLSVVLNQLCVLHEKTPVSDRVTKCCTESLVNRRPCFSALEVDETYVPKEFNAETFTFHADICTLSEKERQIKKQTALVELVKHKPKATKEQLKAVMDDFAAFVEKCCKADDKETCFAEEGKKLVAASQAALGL
Series [3] relates to HSA Site II and AGP. To be noted: human, 400 μM, pH 7.4.
Series [4] concerns AGP Site A and B. As to conditions: for Change ratio (time) of ^3H-PPL free drug ratio / Free drug ratio (%) of ^3H-PPL: human, 400 μM, pH 7.4.
Series [5] addresses T1, HSA Site I. Description: Four-nuclide simultaneous measurement, human serum 2 (AGP variant): displacement of ^99mTcO4^-. From the text:
(§1) In addition, the possibility of monitoring the protein binding displacement effect of a drug in the serum was examined.

The target in series [6] is T1, HSA Site I. To be noted: human serum 1; added drug 400 μM.
Series [7] concerns HSA Site II and AGP. Kind of series: Four-nuclide simultaneous measurement, human serum 2 (AGP variant): displacement of ^125I-IMP.
Description: as §1

The target of series [8] is T1, HSA Site I. Description: Four-nuclide simultaneous measurement, human serum 1: displacement of ^99mTcO4^-. To be noted: human serum 1, four nuclides.
Series [9] has as its system AGP Site A and B. Description: Four-nuclide simultaneous measurement, human serum 2 (AGP variant): displacement of ^3H-PPL.
Description: as §1

Series [10] addresses T1, HSA Site I. Description: Table 6, two-nuclide simultaneous measure, human pooled serum: column headed ^99mTcO4^-. To be noted: physiological saline instead of displacement drug.
Series [11] deals with plasma protein. To be noted: used in the concentration of a diagnostic agent; cited from earlier work.
The test system of series [12] is HSA Site II and AGP. Kind of series: Table 6, two-nuclide simultaneous measure, human pooled serum: column headed ^125I-IMP. To be noted: physiological saline instead of displacement drug.
The test system of series [13] is HSA Site II and AGP. Kind of series: Four-nuclide simultaneous measurement, human serum 1: displacement of ^125I-IMP. To be noted: human serum 1, four nuclides.
[14] abbreviates: physiological saline control (Table 8).
Setting [15] is: physiological saline instead of drug (Table 7).
The mark [16] stands for this setting: physiological saline instead of displacement drug (Table 5).
[17] abbreviates: physiological saline instead of drug (Table 4).

Like-named read-outs stand apart in the source and are kept apart here.

HSA Site II, sequence (P02768 25-609): as above

Regarding `CC[C@H]1OC(=O)[C@H](C)[C@@H](O[C@H]2C[C@@](C)(OC)[C@@H](O)[C@H](C)O2)[C@H](C)[C@@H](O[C@@H]2O[C@H](C)C[C@H](N(C)C)[C@H]2O)[C@](C)(O)C[C@@H](C)C(=O)[C@H](C)[C@@H](O)[C@]1(C)O` [ETM, erythromycin], in series [1], the “Change ratio (time) of ^14C-DZP free drug ratio” value came to 1.04 time and the “Free drug ratio (%) of ^14C-DZP” value was found to be 2.67%. In [2], the “Change ratio (time) of ^99mTcO4^- free drug ratio” value is listed as 0.99 time and the “Free drug ratio (%) of ^99mTcO4^-” value turned out to be 0.88%. For the same compound, in [3], the “Change ratio (time) of ^125I-IMP free drug ratio” value came to 1.61 time and the “Free drug ratio (%) of ^125I-IMP” value was 54.78%. In series [4], the “Effect on free drug with affinity to AGP, in words” value is on record as “effective displacement drug”; the “Change ratio (time) of ^3H-PPL free drug ratio” value was 1.93 time; the “Free drug ratio (%) of ^3H-PPL” value worked out at 23.79%.
With `CCCCC1C(=O)NC(=O)N(C2CCCCC2)C1=O` (stereo not shown) [BCL, bucolome], the “Displacement effect on ^99mTcO4^-, in words” value in series [5] is recorded as “significant displacement effect”. The “Displacement effect on ^14C-WRF, in words” value in series [6] is recorded as “significant displacement effect”. The “Effect on binding of ^125I-IMP, in words” value in series [7] is recorded as “increased”. In addition, the “Displacement effect on drug with affinity to site I of HSA (^99mTcO4^-), in words” value in series [8] is on record as “significant displacement effect”. The “Effect on binding of ^3H-PPL, in words” value in [9] (human serum 2 (AGP variant)) is “increased”.
For `[O]=[99Tc](=[O])(=[O])[O-]` [^99 mTcO4^-, Pertechnetium acid], the “Free drug ratio of control (%), ^99mTcO4^-” value is given as 21.08% in series [5] (setting [14]); 21.08% in [5] (setting [15]); 0.90% in series [10]; 21.07% in series [8] (setting [16]); 21.07% in series [8] (setting [17]).
On to `O=C([O-])CN=C([O-])CN=C([O-])CN=C([O-])C[S-].[O-2].[Tc+4]` [^99mTc-MAG3, 99m-technetium labeled mercaptoacetylglycylglycylglycine], for which the “Binding to plasma protein” value in series [11] is given as “about 90%”.
In the case of `N[C@@H](Cc1c[nH]c2ccccc12)C(=O)O` [Trp, tryptophan], in [1], the “Change ratio (time) of ^14C-DZP free drug ratio” value came out at 2.25 time. For the same compound, the “Change ratio (time) of ^99mTcO4^- free drug ratio” value in series [2] amounted to 1.08 time. Moreover, the “Change ratio (time) of ^125I-IMP free drug ratio” value in series [3] was 0.94 time. Further, the “Change ratio (time) of ^3H-PPL free drug ratio” value in series [4] was 1.01 time.
For `CC(=O)N[C@@H](Cc1c[nH]c2ccccc12)C(=O)O` [NAT, N-acetyltryptophan], in [1], the “Effect on free drug with affinity to site II of HSA, in words” value is recorded as “effective displacement drug”; the “Change ratio (time) of ^14C-DZP free drug ratio” value was found to be 1.21 time; the “Free drug ratio (%) of ^14C-DZP” value is 3.08%. In addition, in series [2], the “Change ratio (time) of ^99mTcO4^- free drug ratio” value was determined as 1.07 time and the “Free drug ratio (%) of ^99mTcO4^-” value was found to be 0.97%. In series [3], the “Change ratio (time) of ^125I-IMP free drug ratio” value was determined as 1.01 time and the “Free drug ratio (%) of ^125I-IMP” value is given as 34.19%. In addition, in [4], the “Effect on free drug with affinity to AGP, in words” value is reported as “effect to reduce the concentration to some extent”; the “Change ratio (time) of ^3H-PPL free drug ratio” value came out at 0.94 time; the “Free drug ratio (%) of ^3H-PPL” value is 11.54%.
For `CC(C)NC(C)Cc1ccc([125I])cc1` (stereo not shown) [^125I-IMP], the “Free drug ratio of control (%), ^125I-IMP” value in series [12] turned out to be 33.98%; in series [7] (setting [14]), 27.23%; in [7] (setting [15]), 27.23%; in series [13] (setting [16]), 23.40%; in series [13] (setting [17]), 23.40%.
As to `CC(C)Cc1ccc(C(C)C(=O)O)cc1` (stereo not shown) [IPF, ibuprofen], in series [9], the “Effect on binding of ^3H-PPL, in words” value was “increased”.
